Reference: publication PMC12530851, “Design, synthesis, and apoptotic antiproliferative activity of novel dihydropyrimidine-5-carbonitrile/1,2,4-oxadiazole hybrids as dual EGFR/VEGFR-2 inhibitors endowed with antioxidant activity” (RSC Advances, 2025)

How the values were obtained:
[1] = system: normal human diploid cell line (WI-38); test: Cytotoxicity against normal cell line (MTT); format: cell-based; details: for Selectivity index (SI), A-549: WI-38 vs A-549; for Selectivity index (SI), HT-29: WI-38 vs HT-29; for Selectivity index (SI), MCF-7: WI-38 vs MCF-7; for Selectivity index (SI), Panc-1: WI-38 vs Panc-1
[2] = Cytotoxicity against normal cell line (MTT); format: cell-based, human; details: WI-38 normal human diploid cells; normal human diploid WI-38 cells, MTT
[3] = Cell viability assay (MTT) on normal MCF-10A cells; format: cell-based; details: human, MCF-10A mammary gland epithelial cells (normal cell line), MCF-10A normal cells, four-day incubation
Protocol: The impact of novel compounds 10a–l on the viability of a normal human cell line, specifically human mammary gland epithelial cells (MCF-10A), was assessed to ascertain the safety of the newly synthesized compounds. The MTT test was employed to assess the cell viability of the novel compounds after a four-day incubation with MCF-10A cells.[29,37] Refer to Appendix A for more experimental details.
The effect of new compounds 10a–l on the viability of a normal human cell line, namely human mammary gland epithelial cells (MCF-10A), was evaluated to determine the safety of the newly synthesized compounds.
4.2. Biological evaluation
4.2.1 Cell Viability assay (MTT assay)
MTT assay was performed to investigate the effect of the synthesized compounds on mammary epithelial cells (MCF-10A). The cells were propagated in medium consisting of Ham's F-12 medium/ Dulbecco's modified Eagle's medium (DMEM) (1:1) supplemented with 10% foetal calf serum, 2 mM glutamine, insulin (10 μg/mL), hydrocortisone (500 ng/mL) and epidermal growth factor (20 ng/mL). Trypsin ethylenediamine tetra acetic acid (EDTA) was used to passage the cells after every 2-3 days. 96-well flat-bottomed cell culture plates were used to seed the cells at a density of 10^4 cells mL-1. The medium was aspirated from all the wells of culture plates after 24 h followed by the addition of synthesized compounds (in 200 μL medium to yield a final concentration of 0.1% (v/v) dimethyl sulfoxide) into individual wells of the plates. Four wells were designated to a single compound. The plates were allowed to incubate at 37°C for 96 h. Afterwards, the medium was aspirated and 3-[4,5-dimethylthiazol-2-yl]-2,5-diphenyltetrazolium bromide (MTT) (0.4 mg/mL) in medium was added to each well and subsequently incubated for 3 h. The medium was aspirated and 150 μL dimethyl sulfoxide (DMSO) was added to each well. The plates were vortexed followed by the measurement of absorbance at 540 nm on a microplate reader. […]

caspase-9 = test: Caspase-9 activation assay in MCF-7 cells; format: cell-based, human; details: for Caspase-9 Fold change: vs untreated control
Protocol: Compounds10k and 10l were tested as caspases-3, 8, 9, Bax and p53 activators and as down-regulators of the anti-apoptotic protein Bcl2 against the MCF-7 breast cancer cell line.[41] Appendix A gives more details.
To elucidate the apoptotic processes of compounds 10k and 10l, whether via the intrinsic or extrinsic pathway, their impacts on caspase-8 and caspase-9 were evaluated. […] This signifies the activation of both intrinsic and extrinsic pathways (Table 5).
4.2.6. Caspase-8/9 activation assay
Cells were obtained from American Type Culture Collection, cells were grown in RPMI 1640 containing 10% fetal bovine serum at 37°C, stimulated with the compounds to be tested for caspase 8/9, and lysed with Cell Extraction Buffer. This lysate was diluted in Standard Diluent Buffer over the range of the assay and measured for human active caspase-8/9 content. (Cells are Plated in a density of 1.2 – 1.8 × 10,000 cells/well in a volume of 100µl complete growth medium + 100 ul of the tested compound per well in a 96-well plate for 24 hours before the enzyme assay). The absorbance of each microwell was read on a spectro-photometer at 450 nm. […]

A-549 (lung cancer) = test: Antiproliferative assay, A-549; format: cell-based; details: Homo sapiens, A549; A-549 lung cancer cells; read-out: Antiproliferative activity IC50 ± SEM, A-549
Excerpt: (§1) The dose–response experiments established the IC50 values for the new compounds. The given findings were obtained from at least two distinct studies, each comprising three repeats per concentration. Appendix A (SI File) provides experimental details.[38,39]
(§2) The MTT assay[43] was utilized to assess the antiproliferative effects of compounds 10a–l on four human cancer cell lines: HT-29 (colon cancer), Panc-1 (pancreatic cancer), A-549 (lung cancer), and MCF-7 (breast cancer). […]
(§3) 4.2.2. Assay for antiproliferative effect
(§4) To explore the antiproliferative potential of compounds propidium iodide fluorescence assay was performed using different cell lines such as Panc-1 (pancreas cancer cell line), MCF-7 (breast cancer cell line), HT-29 (colon cancer cell line) and A-549 (epithelial cancer cell line), respectively. To calculate the total nuclear DNA, a fluorescent dye (propidium iodide, PI) is used which can attach to the DNA, thus offering a quick and precise technique. PI cannot pass through the cell membrane and its signal intensity can be considered as directly proportional to quantity of cellular DNA. Cells whose cell membranes are damaged or have changed permeability are counted as dead ones. The assay was performed by seeding the cells of different cell lines at a density of 3000-7500 cells/well (in 200μl medium) in culture plates followed by incubation for 24h at 37 °C in humidified 5%CO2/95% air atmospheric conditions. The medium was removed; the compounds were added to the plates at 10 μM concentrations (in 0.1% DMSO) in triplicates, followed by incubation for 48h. DMSO (0.1%) was used as control. After incubation, medium was removed followed by the addition of PI (25 μl, 50μg/mL in water/medium) to each well of the plates. At - 80 °C, the plates were allowed to freeze for 24 h, followed by thawing at 25 °C. A fluorometer (Polar-Star BMG Tech) was used to record the readings at excitation and emission wavelengths of 530 and 620 nm for each well. The percentage cytotoxicity of compounds was calculated using […]
(§5) Where ATC= Absorbance of treated cells and AC= Absorbance of control. Erlotinib was used as positive control in the assay. […]

HT-29 (colon cancer) = test: Antiproliferative assay, HT-29; format: cell-based; details: Homo sapiens; HT-29 colon cancer cells; read-out: Antiproliferative activity IC50 ± SEM, HT-29
Excerpt: as §1, §2, §3, §4, §5

Row | Compound | Selectivity index (SI), A-549 [1] | Selectivity index (SI), HT-29 [1] | Selectivity index (SI), MCF-7 [1] | Selectivity index (SI), Panc-1 [1] | IC50 [2] [nM] | viability at 96 h, 50 µM [3] [%] | Caspase-9 Conc (caspase-9) [ng/mL] | Caspase-9 Fold change (caspase-9) [fold] | IC50 (A-549 (lung cancer)) [nM] | IC50 (HT-29 (colon cancer)) [nM]
1 | COc1ccc(-c2noc(CSc3nc(-c4ccc(OC)cc4)c(C#N)c(=O)[nH]3)n2)cc1 [Compound 10l, 2-(((3-(4-Methoxyphenyl)-1,2,4-oxadiazol-5-yl)methyl)thio)-4-(4-methoxyphenyl)-6-oxo-1,6-dihydropyrimidine-5-carbonitrile] | > 7.0 | > 7.0 | > 9.0 | > 7.0 | > 200 | 91 | 22 ± 1 | 22 | 28 ± 1 | 28 ± 1
2 | COc1ccc(-c2nc(SCc3nc(-c4ccc(Cl)cc4)no3)[nH]c(=O)c2C#N)cc1 [Compound 10k, 2-(((3-(4-Chlorophenyl)-1,2,4-oxadiazol-5-yl)methyl)thio)-4-(4-methoxyphenyl)-6-oxo-1,6-dihydropyrimidine-5-carbonitrile] | > 8.0 | > 8.0 | > 10.0 | > 9.0 | > 200 | 90 | 24 ± 1 | 24 | 23 ± 1 | 23 ± 1
